Assay: Check for conversion of the anhydrate to the hemihydrate in soft gelatin capsules (infrared spectroscopy or DSC)
Assay type: physicochemical
Details: paroxetin anhydrate incorporated into soft gelatin capsules; lipophilic carrier silicone oil
Description: The incorporation of paroxetin anhydrate into soft gelatin capsules was surprising because soft gelatin contains very large amounts of water during the encapsulation process. […] However, the use of glycerol in the preparation of the capsule coat should be avoided.
A test for absence of the hemihydrate can be performed very simply by infrared spectroscopy or differential scanning calorimetry (DSC), as described by P.C. Baxter et al. in the International Journal of Pharmaceutics, 42 (1988), pages 135 to 143.

Structure (SMILES): Fc1ccc([C@@H]2CCNC[C@H]2COc2ccc3c(c2)OCO3)cc1 (relative stereo) [paroxetin anhydrate, (—)-trans-4-(4′-fluorophenyl)-3-(3′,4′-methylenedioxyphenoxymethyl)-piperidine]
- conversion to the hemihydrate: did not occur
